Test results published in BindingDB's records for doi:10.1021/acs.biochem.7b00041 (North Carolina State University, 2017).

What follows are molecules tested against T1, Dehaloperoxidase B (Amphitrite ornata, UniProt Q9NAV7) (assay: Resonance Raman Assay). Conditions: pH 7.
T1 sequence (Q9NAV7 whole entry): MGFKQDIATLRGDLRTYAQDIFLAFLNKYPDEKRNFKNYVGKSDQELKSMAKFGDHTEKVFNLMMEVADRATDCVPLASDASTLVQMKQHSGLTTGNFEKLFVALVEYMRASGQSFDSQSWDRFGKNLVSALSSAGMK
Method: Samples for solution resonance Raman spectroscopic studies were prepared withfinal concentrations of 75 μM WT DHP B and 3.75 mM azole in 100 mM KPi (pH 7 or 9) containing 10% MeOH (v/v) and then transferred to a 5 mm outside diameter glass NMR tube. Anaerobic samples were prepared inside a glovebox in the same fashion using septum-capped NMR tubes. Spectra were recorded by Soret band excitation (400−430 nm, 60 mW power) as previously described. [Barrios et al., J. Am. Chem. Soc., 136:7914-7925]
With `c1c[nH]cn1` the Kd was 52 µM. Work on “1,2,3-benzotriazole::Benzotriazole (Bta)” yielded a Kd of 82 µM. `c1ccc2[nH]cnc2c1` [1H-1,3-benzodiazole] showed a Kd of 110 µM.
